Results on 20 compounds are retold here after US12606541B2, “PPARg modulators and methods of use” (Eisai R&D Management Co., Ltd., priority 2020, dated 2026).

pIC50: −log10 of the molar value.

The test system of one experiment is UM-UC-9 engineered cells. As to the kind of experiment: Cell proliferation / short-term viability assay, CellTiter-Glo 144 h. The experiment is classed as cell-based, human. Particulars: Homo sapiens, UM-UC-9, 144 h, read-out: CTGlo 144 h UMUC9.5, G150. Put shortly: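 UM-UC-9 engineered assay-ready cells seeded at 500 cells/well in high-glucose DMEM/10% FBS, treated from dose-response plates, grown at 37° C, 5% CO2. CellTiter-Glo 2.0 luminescence read on day 7, with a day-0 pretreatment plate as T0 reference and DMSO wells as negative control.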

The next experiment has as its target T1, His6-TEV-PPARγ-(234-505) (Homo sapiens, UniProt P37231).
T1 construct: The His6-TEV-PPARγ-(234-505) protein for assay was expressed and purified; TEV cleavage site (N); made in house
T1 sequence (P37231 234-505): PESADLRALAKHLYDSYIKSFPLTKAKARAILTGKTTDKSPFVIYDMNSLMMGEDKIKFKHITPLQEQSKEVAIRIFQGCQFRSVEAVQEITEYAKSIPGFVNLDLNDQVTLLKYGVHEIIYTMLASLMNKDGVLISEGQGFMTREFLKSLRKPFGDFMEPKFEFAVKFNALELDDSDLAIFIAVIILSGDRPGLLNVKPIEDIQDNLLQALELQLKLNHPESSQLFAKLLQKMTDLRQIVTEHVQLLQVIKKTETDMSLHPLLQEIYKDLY
The experiment in a line: TR-FRET Assay to Measure Co-R Peptide Recruitment to PPARγ. The experiment is classed as biochemical. The conditions noted are these: Co-R peptide (SMRT-ID2) recruitment; top final concentration 20 μM; read-out: TR-FRET i-Ag; AC50. A digest of the protocol: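 His-tagged PPARγ (or controls) was preincubated with compound for 20 minutes at room temperature, then 5 nM anti-His terbium antibody and 200 nM FITC-labeled SMRT-ID2 corepressor peptide (final) were added for a further hour. TR-FRET signal was normalized to percent response using 500 nM T0070907 and DMSO controls.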
A general note: TR-FRET usually uses a lanthanide donor and a delayed reading to cut background.

Turning to `Cc1cc(-c2c[nH]c(C(=O)N3CCC(C(=O)N[C@H]4CC[C@@](O)(C(F)(F)F)CC4)CC34CC4)n2)c(O)cn1` (stereo partly shown) [Example 310, 4-(4-(5-hydroxy-2-methylpyridin-4-yl)-1H-imidazole-2-carbonyl)-N-((1r,4r)-4-hydroxy-4-(trifluoromethyl)cyclohexyl)-4-azaspiro[2.5]octane-7-carboxamide], the pIC50 with UM-UC-9 engineered cells is 7.00. In addition, the AC50 at His6-TEV-PPARγ-(234-505) turned out to be 14 nM.
On to `Cc1nccc(-c2cc(C(=O)N3[C@@H]4CC[C@H]3C[C@H](C(=O)N[C@H]3CC[C@@](O)(C(F)(F)F)CC3)C4)n[nH]2)c1C` [Example 314, (1R,3s,5S)-8-(5-(2,3-dimethylpyridin-4-yl)-1H-pyrazole-3-carbonyl)-N-((1r,4R)-4-hydroxy-4-(trifluoromethyl)cyclohexyl)-8-azabicyclo[3.2.1]octane-3-carboxamide], for which the pIC50 in the experiment on UM-UC-9 engineered cells was < 5.00. Moreover, the AC50 on His6-TEV-PPARγ-(234-505) was found to be 347 nM.
The corresponding values for `Cc1cc(-c2cc(C(=O)N3[C@@H]4CC[C@H]3C[C@H](C(=O)N[C@H]3CC[C@@](O)(C(F)(F)F)CC3)C4)n[nH]2)c2cn[nH]c2n1` [Example 315, (1R,3s,5S)—N-((1r,4R)-4-hydroxy-4-(trifluoromethyl)cyclohexyl)-8-(5-(6-methyl-1H-pyrazolo[3,4-b]pyridin-4-yl)-1H-pyrazole-3-carbonyl)-8-azabicyclo[3.2.1]octane-3-carboxamide] are < 5.00 and 863 nM.
In the case of `CCc1cc(-c2cc(C(=O)N3[C@@H]4CC[C@H]3C[C@H](C(=O)N[C@H]3CC[C@@](O)(C(F)(F)F)CC3)C4)n[nH]2)ccn1` [Example 316, (1R,3s,5S)-8-(5-(2-ethylpyridin-4-yl)-1H-pyrazole-3-carbonyl)-N-((1r,4R)-4-hydroxy-4-(trifluoromethyl)cyclohexyl)-8-azabicyclo[3.2.1]octane-3-carboxamide], the pIC50 in the experiment with UM-UC-9 engineered cells is 5.47. Also, on His6-TEV-PPARγ-(234-505), the AC50 worked out at 67.9 nM.
Taken in the same sequence, the figures for `O=C(N[C@H]1CC[C@@](O)(C(F)(F)F)CC1)[C@@H]1C[C@H]2CC[C@@H](C1)N2C(=O)c1cc(-c2ccnc(CO)c2)[nH]n1` [Example 317, (1R,3s,5S)—N-((1r,4R)-4-hydroxy-4-(trifluoromethyl)cyclohexyl)-8-(5-(2-(hydroxymethyl)pyridin-4-yl)-1H-pyrazole-3-carbonyl)-8-azabicyclo[3.2]octane-3-carboxamide] were < 5.00 and 344 nM.
Regarding `COc1cc(-c2cc(C(=O)N3[C@@H]4CC[C@H]3C[C@H](C(=O)NC3CCC5(CC3)OCC5C(F)(F)F)C4)n[nH]2)c(F)cn1` (stereo partly shown) [Example 318], in the experiment on UM-UC-9 engineered cells, the pIC50 is 6.43. Besides, the AC50 at His6-TEV-PPARγ-(234-505) amounted to 340 nM.
Regarding `COc1cc(-c2cc(C(=O)N3[C@@H]4CC[C@H]3C[C@H](C(=O)NC3CCC5(CC3)OCC(F)C5F)C4)n[nH]2)c(F)cn1` (stereo partly drawn) [Example 319, (1R,3s,5S)—N-(3,41-difluoro-1-oxaspiro[4.5]decan-8-yl)-8-(5-(5-fluoro-2-methoxypyridin-4-yl)-1H-pyrazole-3-carbonyl)-8-azabicyclo[3.2.1]octane-3-carboxamide], the pIC50 with UM-UC-9 engineered cells was 6.64. Moreover, on His6-TEV-PPARγ-(234-505), the AC50 stood at 124 nM.
As for `COc1cc(-c2cc(C(=O)N3CC[C@H](C(=O)N[C@H]4CC[C@@](OCCN(C)C)(C(F)(F)F)CC4)CC34CC4)n[nH]2)c(F)cn1` [Example 329-A, (S)—N-((1r,4S)-4-(2-(dimethylamino)ethoxy)-4-(trifluoromethyl)cyclohexyl)-4-(5-(5-fluoro-2-methoxypyridin-4-yl)-1H-pyrazole-3-carbonyl)-4-azaspiro[2.5]octane-7-carboxamide], the pIC50 with UM-UC-9 engineered cells was 7.61. Moreover, the AC50 at His6-TEV-PPARγ-(234-505) stood at 7.5 nM.
For `COc1cc(-c2cc(C(=O)N3CC[C@@H](C(=O)N[C@H]4CC[C@@](OCCN(C)C)(C(F)(F)F)CC4)CC34CC4)n[nH]2)c(F)cn1` [Example 329-B, (R)—N-((1r,4R)-4-(2-(dimethylamino)ethoxy)-4-(trifluoromethyl)cyclohexyl)-4-(5-(5-fluoro-2-methoxypyridin-4-yl)-1H-pyrazole-3-carbonyl)-4-azaspiro[2.5]octane-7-carboxamide], the pIC50 in the experiment with UM-UC-9 engineered cells is 5.78. Also, the AC50 at His6-TEV-PPARγ-(234-505) was 452 nM.
For `COc1cc(-c2cc(C(=O)N3CC[C@H](C(=O)NCC45CCC(O)(C4)C5)CC34CC4)n[nH]2)c(F)cn1` [Example 334, (S)-4-(5-(5-fluoro-2-methoxypyridin-4-yl)-1H-pyrazole-3-carbonyl)-N-((4-hydroxybicyclo[2.1.1]hexan-1-yl)methyl)-4-azaspiro[2.5]octane-7-carboxamide], the pIC50 with UM-UC-9 engineered cells was 6.55. Also, the AC50 at His6-TEV-PPARγ-(234-505) was 72.6 nM.
Take `COc1cc(-c2cc(C(=O)N3CCC(C(=O)NCC45CCC(O)(C4)C5)CC34CC4)n[nH]2)c(F)cn1` (stereo not shown) [Example 335, 4-(5-(5-fluoro-2-methoxypyridin-4-yl)-1H-pyrazole-3-carbonyl)-N-((4-hydroxybicyclo[2.1.1]hexan-1-yl)methyl)-4-azaspiro[2.5]octane-7-carboxamide]: the pIC50 in the experiment with UM-UC-9 engineered cells is 5.21. Further, at His6-TEV-PPARγ-(234-505), the AC50 came out at 417 nM.
The corresponding values for `COc1cc(-c2cc(C(=O)N3CC[C@H](C(=O)NCC45CC(O)(C4)C5)CC34CC4)n[nH]2)c(F)cn1` [Example 336, (S)-4-(5-(5-fluoro-2-methoxypyridin-4-yl)-1H-pyrazole-3-carbonyl)-N-((3-hydroxybicyclo[1.1.1]pentan-1-yl)methyl)-4-azaspiro[2.5]octane-7-carboxamide] are 5.98 and 109 nM.
In the case of `COc1cc(-c2cc(C(=O)N3CC[C@H](C(=O)NCC45COC(C)(C4)C5)CC34CC4)n[nH]2)c(F)cn1` [Example 343, (S)-4-(5-(5-fluoro-2-methoxypyridin-4-yl)-1H-pyrazole-3-carbonyl)-N-((1-methyl-2-oxabicyclo[2.1.1]hexan-4-yl)methyl)-4-azaspiro[2.5]octane-7-carboxamide], the pIC50 in the experiment with UM-UC-9 engineered cells is 7.03. The AC50 on His6-TEV-PPARγ-(234-505) is 20 nM.
Taken in the same sequence, the figures for `COc1cc(-c2cc(C(=O)N3CC[C@@H](C(=O)N[C@@H]4CCN(CC(C)(C)O)C4)CC34CC4)[nH]n2)c(F)cn1` [Example 344-A, (R)-4-(3-(5-fluoro-2-methoxypyridin-4-yl)-1H-pyrazole-5-carbonyl)-N—((R)-1-(2-hydroxy-2-methylpropyl)pyrrolidin-3-yl)-4-azaspiro[2.5]octane-7-carboxamide] were < 5.00 and 14800 nM.
The corresponding values for `COc1cc(-c2cc(C(=O)N3CC[C@H](C(=O)N[C@@H]4CCN(CC(C)(C)O)C4)CC34CC4)[nH]n2)c(F)cn1` [Example 344-B, (S)-4-(3-(5-fluoro-2-methoxypyridin-4-yl)-1H-pyrazole-5-carbonyl)-N—((R)-1-(2-hydroxy-2-methylpropyl)pyrrolidin-3-yl)-4-azaspiro[2.5]octane-7-carboxamide] are 6.24 and 123 nM.
As for `COc1cc(-c2cc(C(=O)N3CC[C@H](C(=O)NC4CCN(CC(C)(C)O)C4)CC34CC4)[nH]n2)c(F)cn1` (stereo partly drawn) [Example 345-A, (S)-4-(3-(5-Fluoro-2-methoxypyridin-4-yl)-1H-pyrazole-5-carbonyl)-N-(1-(2-hydroxy-2-methylpropyl)pyrrolidin-3-yl)-4-azaspiro[2,5]octane-7-carboxamide], in the experiment on UM-UC-9 engineered cells, the pIC50 was 6.35. At His6-TEV-PPARγ-(234-505), the AC50 was 161 nM.
The corresponding values for `COc1cc(-c2cc(C(=O)N3CC[C@@H](C(=O)N[C@H]4CCN(CC(C)(C)O)C4)CC34CC4)[nH]n2)c(F)cn1` [Example 345-B, (R)-4-(3-(5-Fluoro-2-methoxypyridin-4-yl)-1H-pyrazole-5-carbonyl)-N—((S)-1-(2-hydroxy-2-methylpropyl)pyrrolidin-3-yl)-4-azaspiro[2.5]octane-7-carboxamide] are < 5.00 and 7250 nM.
Turning to `COc1cc(-c2cc(C(=O)N3CC[C@H](C(=O)NC4CCC5(CCCN5)CC4)CC34CC4)n[nH]2)c(F)cn1` (stereo partly drawn) [Example 348, (S)-4-(5-(5-fluoro-2-methoxypyridin-4-yl)-1H-pyrazole-3-carbonyl)-N-(1-azaspiro[4.5]decan-8-yl)-4-azaspiro[2.5]octane-7-carboxamide], the pIC50 in the experiment with UM-UC-9 engineered cells was < 5.00. For the same compound, the AC50 on His6-TEV-PPARγ-(234-505) worked out at 305 nM.
Taken in the same sequence, the figures for `COc1cc(-c2cc(C(=O)N3CC[C@H](C(=O)NC4CCC5(CCCN5C5COC5)CC4)CC34CC4)n[nH]2)c(F)cn1` (stereo partly drawn) [Example 349, (S)-4-(5-(5-fluoro-2-methoxypyridin-4-yl)-1H-pyrazole-3-carbonyl)-N-(1-(oxetan-3-yl)-1-azaspiro[4.5]decan-8-yl)-4-azaspiro[2.5]octane-7-carboxamide] were 6.08 and 187 nM.
Regarding `COc1cc(-c2cc(C(=O)N3CC[C@H](C(=O)N[C@H]4CC[C@@](OCCN)(C(F)(F)F)CC4)CC34CC4)n[nH]2)c(F)cn1` [Example 350, (S)—N-((1r,4S)-4-(2-aminoethoxy)-4-(trifluoromethyl)cyclohexyl)-4-(5-(5-fluoro-2-methoxypyridin-4-yl)-1H-pyrazole-3-carbonyl)-4-azaspiro[2.5]octane-7-carboxamide], the pIC50 with UM-UC-9 engineered cells was 6.75. At His6-TEV-PPARγ-(234-505), the AC50 is 5.3 nM.
